Results reported in patent US20240393292A1, “ALLERGY ANTIGEN AND EPITOPE THEREOF” (HOYU CO., LTD., priority 2019, published 2024).

These substances were tested on IgE antibody present in the serum of a wheat-allergic patient (assay: Wheat epitope mapping (1): peptide array of overlapping 15-amino-acid peptides, chemiluminescence). Conditions: bound = chemiluminescence value minus N2nd value of 5 non-wheat-allergic subjects at least 35,000; serum of 49 patients.
Format: binding, human
Protocol: Epitope mapping was carried out using a library of overlapping peptides (length: 15 amino acids) corresponding to the amino acid sequences identified as allergy components of wheat. Specifically, the library of overlapping peptides was prepared on the basis of the amino acid sequences of SEQ ID NOs: 2, 4, 6, 8, 10, 12, 14, 16, 18, 20, 22, 24, 26 and 28.
The peptides to be synthesized were shifted by 10 amino acids.
For preparation of peptide arrays, the Intavis CelluSpots™ technique was used. Specifically, the peptide arrays were prepared by the following procedure: (1) synthesizing peptides of interest on amino-modified cellulose disks using an automated chemical synthesis apparatus (Intavis MultiPep RS), (2) dissolving the amino-modified cellulose disks to obtain a cellulose-bound peptide solution, and (3) spotting the cellulose-bound peptides onto coated glass slides. The details of each procedure are as described below.
Peptide synthesis was carried out in incremental steps through 9-fluorenylmethoxycarbonyl (Fmoc) chemical reaction on amino-modified cellulose disks in 384-well synthesis plates. Specifically, amino acids in which a Fmoc group is bonded to an amino group were activated in a solution of N,N′-diisopropylcarbodiimide (DIC) and 1-hydroxybenzotriazole (HOBt) in dimethylformamide (DMF) and added dropwise to the cellulose disks so that the Fmoc group-bound amino acids were bound to the amino groups on the cellulose disks (coupling). Unreacted amino groups were capped with acetic anhydride and washed with DMF. Furthermore, the Fmoc groups were eliminated from the amino groups of the amino acids bound to the amino groups on the cellulose disks by treatment with piperidine and washing with DMF. The amino acids bound to the amino groups on the cellulose disks were repetitively subjected to the coupling, the capping, and the Fmoc group elimination described above to elongate the amino terminus for peptide synthesis.
The peptides-bound cellulose disks of interest obtained above in the subsection titled “(1) Synthesis of peptide” were transferred to 96-well plates and treated with a side chain deprotection mixed solution of trifluoroacetic acid (TFA), dichloromethane, triisopropylsilane (TIPS), and water for deprotection of amino acid side chains. Then, the deprotected cellulose-bound peptides were dissolved in a mixed solution of TFA, […] acid (TFMSA), TIPS, and water and precipitated in […] methyl ether (TBME), and the precipitate was resuspended in dimethyl sulfoxide (DMSO) and mixed with a mixed solution of NaCl, sodium citrate, and water to obtain a peptide solution for slide spotting.
The peptide solution for slide spotting obtained above in the subsection titled “(2) Dissolution of amino-modified cellulose disk” was spotted onto Intavis CelluSpots™ slides using Intavis Slide Spotting Robot, and the slides were dried to prepare peptide arrays.
The presence or absence of binding, to each peptide fragment, of an IgE antibody present in the serum of a wheat-allergic patient was measured through antigen-antibody reaction using the peptide arrays. […]

Substance | binding of patient-specific IgE antibodies to 15-residue peptide
SEQ ID NO: 1209: common 15-residue epitope sequence of polypeptide (E18) (PIQQQPQPFPQQPPC; REGION 1..15: note = epitope) | confirmed to bind
SEQ ID NO: 974: common 15-residue epitope sequence of polypeptide (E13) (QPFPQQQQPIIILQQ; REGION 1..15: note = epitope) | confirmed to bind
SEQ ID NO: 2154: common 15-residue epitope sequence of polypeptide (E36) (YSQPQQPISQQQQQQ; REGION 1..15: note = epitope) | confirmed to bind
SEQ ID NO: 1836: common 15-residue epitope sequence of polypeptide (E30) (VIAEYTVRTLQRTVP; REGION 1..15: note = epitope) | confirmed to bind
SEQ ID NO: 2701: common 15-residue epitope sequence of polypeptide (E47) (VYKIGGIGTVPVGRV; REGION 1..15: note = epitope) | confirmed to bind
SEQ ID NO: 899: common 15-residue epitope sequence of polypeptide (E12) (LGQQQQQFPGQQQPF; REGION 1..15: note = epitope) | confirmed to bind
SEQ ID NO: 1608: common 15-residue epitope sequence of polypeptide (E26) (VGYNPDKVPFVPISG; REGION 1..15: note = epitope) | confirmed to bind
SEQ ID NO: 2674: common 15-residue epitope sequence of polypeptide (E46) (YKGPTLLEALDQINE; REGION 1..15: note = epitope) | confirmed to bind
SEQ ID NO: 1089: common 15-residue epitope sequence of polypeptide (E15) (STKGGKPFVDILKAG; REGION 1..15: note = epitope) | confirmed to bind

Results, then the substance that gave them:

binding of patient-specific IgE antibodies to 15-residue peptide | Substance
confirmed to bind | SEQ ID NO: 414: common 15-residue epitope sequence of polypeptide (E6) (KWRAVLKIGATEPSQ; REGION 1..15: note = epitope)
confirmed to bind | SEQ ID NO: 1297: common 15-residue epitope sequence of polypeptide (E20) (SINVENVEDNRRALR; REGION 1..15: note = epitope)
confirmed to bind | SEQ ID NO: 640: common 15-residue epitope sequence of polypeptide (E9) (QVPLVQQQQFPGQQQ; REGION 1..15: note = epitope)
confirmed to bind | SEQ ID NO: 1257: common 15-residue epitope sequence of polypeptide (E19) (SSLVSMILPRSDCKV; REGION 1..15: note = epitope)
confirmed to bind | SEQ ID NO: 2545: common 15-residue epitope sequence of polypeptide (E43) (LQQSTYQLVQQLCCQ; REGION 1..15: note = epitope)
confirmed to bind | SEQ ID NO: 1142: common 15-residue epitope sequence of polypeptide (E16) (TEPSQLSIDQNAQGL; REGION 1..15: note = epitope)
confirmed to bind | SEQ ID NO: 2631: common 15-residue epitope sequence of polypeptide (E45) (RFEKEAAEMNKRSFK; REGION 1..15: note = epitope)
confirmed to bind | SEQ ID NO: 2774: common 15-residue epitope sequence of polypeptide (E48) (FLKNGDAGIVKMIPT; REGION 1..15: note = epitope)
confirmed to bind | SEQ ID NO: 776: common 15-residue epitope sequence of polypeptide (E11) (QPYPQPQPFPSQQPY; REGION 1..15: note = epitope)
confirmed to bind | SEQ ID NO: 2265: common 15-residue epitope sequence of polypeptide (E38) (LGGIDKRVIERFEKE; REGION 1..15: note = epitope)
confirmed to bind | SEQ ID NO: 1367: common 15-residue epitope sequence of polypeptide (E21) (KPWQQQPLPPQQQPP; REGION 1..15: note = epitope)
confirmed to bind | SEQ ID NO: 1010: common 15-residue epitope sequence of polypeptide (E14) (WLQQQLVPQLQQPLS; REGION 1..15: note = epitope)
confirmed to bind | SEQ ID NO: 1403: common 15-residue epitope sequence of polypeptide (E22) (QYLQPQQPISQQQAQ; REGION 1..15: note = epitope)
confirmed to bind | SEQ ID NO: 2068: common 15-residue epitope sequence of polypeptide (E35) (PPYCTIAPFGIFGTN; REGION 1..15: note = epitope)

These substances were tested on IgE antibodies from patients having allergies to each food (assay: Confirmation of epitope cross-reactivity by ELISA with biotinylated peptides). Conditions: serum IgE of patient P4 (WDEIA); epitope E3, LMW-D8(LMW-GS) B2BZD1, Spot No. 9; key sequence XXXQQXXPQQXXXXX (SEQ ID NO 203); Graph No. 1.
Format: binding, human
Source text: Amino acids other than amino acids important for maintaining binding to IgE antibodies, in each of the epitope sequences found in the wheat proteins in Table 2 were defined as any given amino acid (X). NCBI was searched for proteins having the key sequences having the amino acid residues X in cooking ingredient allergens carried in common by each of the patients. As a result, an amino acid sequence contained in a sequence in each food described in the column “Food with which cross-reactivity was confirmed” in Table 2 was identified as one example.
The binding activity of peptides comprising the amino acid sequences described in the column “Synthesis sequence” and the rightmost column “SEQ ID NO” of Table 2 against IgE antibodies from patients having allergies to each food described in the column “Food with which cross-reactivity was confirmed” in Table 2 was confirmed by ELISA. The peptides were synthesized such that the peptides were N-terminally biotinylated by the Fmoc method.
To be specific, ELISA was carried out according to the following procedure. • (1) The concentrations of the biotinylated peptides were adjusted to 10 μg/mL with PBST (0.1% Tween 20). • (2) Each peptide solution was added at 20 μL to each well of a 384-well plate coated with streptavidin, and shaken at room temperature for one hour. After collection of the solution, the wells were washed with PBST five times. • (3) Pierce Protein-Free (PBS) Blocking Buffer (produced by Thermo) was added at 40 μL thereto and shaken at room temperature for one hour. After removal of the solution, the wells were washed with PBST five times. • (4) 2% serum/Canget SignalSolution I (produced by TOYOBO) was added at 20 μL thereto and shaken at room temperature for one hour. After removal of the solution, the wells were washed with PBST five times. • (5) A diluted secondary antibody solution (1:10000, Canget SignalSolution II (produced by TOYOBO)) was added at 20 μL thereto and shaken at room temperature for one hour. After removal of the solution, the wells were washed with PBST five times. • (6) 1-Step Ultra TMB-ELISA (produced by Thermo) was added at 20 μL thereto and shaken at room temperature for 15 minutes. • (7) 2 M H2SO4 was added at 20 μL thereto. Absorbance at 450 nm was measured.
Peptides having these amino acid sequences were prepared by the same procedure as described in Example 4 (A), and the presence or absence of binding thereto of IgE antibodies present in the serum of an allergic patient and the serum of a nonallergic subject was measured. The serum of two nonallergic subjects was measured, and values obtained by dividing the measurement values by an average value thereof were used.
The bar graph of each figure depicts “absorbance of the allergic patient/absorbance of the nonallergic patient (healthy subject)”. The names of the cooking ingredients described in each graph are the names of cooking ingredients containing a polypeptide comprising an amino acid sequence serving as the basis of each synthetic sequence used.

Substance | Food in which cross-reactivity was confirmed
2881 (QEQQQYYPQQQAFFL; REGION 1..15: note = epitope) [compound 2881] | Orchard grass

Same assay, conditions: serum IgE of patient P10 (WDEIA); epitope E3, LMW-D8(LMW-GS) B2BZD1, Spot No. 9; key sequence XXXQQXXPQQQXXXX (SEQ ID NO 220); Graph No. 1

Substance | Food in which cross-reactivity was confirmed
2881 (QEQQQYYPQQQAFFL; REGION 1..15: note = epitope) [compound 2881] | Orchard grass

Same assay, conditions: serum IgE of patient P32 (WDEIA); epitope E3, LMW-D8(LMW-GS) B2BZD1, Spot No. 9; preferred sequence XXQQQXFPQQQXXXX (SEQ ID NO 268); Graph No. 1

Substance | Food in which cross-reactivity was confirmed
2881 (QEQQQYYPQQQAFFL; REGION 1..15: note = epitope) [compound 2881] | Orchard grass
